Among the data in publication doi:10.1101/2025.10.23.684218v2, “Development of a dual chemical probe for the USP16 and HDAC6 zinc-finger ubiquitin-binding domain” (biorxiv, 2025) are Kd values, retold here.

The target of experiment [1] is T1, HDAC6-UBD (HDAC6 1109-1215) (Homo sapiens, UniProt Q9UBN7).
T1 sequence (Q9UBN7 1109-1215): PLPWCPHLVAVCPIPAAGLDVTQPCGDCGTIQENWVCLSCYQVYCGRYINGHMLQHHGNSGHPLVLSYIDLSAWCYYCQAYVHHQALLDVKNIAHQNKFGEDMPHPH
Description: SPR, steady state. It is filed as binding. A general note: SPR reads the build-up and loss of mass on a sensor chip optically.

Another experiment deals with T2, USP49 (Homo sapiens, UniProt Q70CQ1).
T2 construct: UBD, residues 1-115
T2 sequence (Q70CQ1 1-688): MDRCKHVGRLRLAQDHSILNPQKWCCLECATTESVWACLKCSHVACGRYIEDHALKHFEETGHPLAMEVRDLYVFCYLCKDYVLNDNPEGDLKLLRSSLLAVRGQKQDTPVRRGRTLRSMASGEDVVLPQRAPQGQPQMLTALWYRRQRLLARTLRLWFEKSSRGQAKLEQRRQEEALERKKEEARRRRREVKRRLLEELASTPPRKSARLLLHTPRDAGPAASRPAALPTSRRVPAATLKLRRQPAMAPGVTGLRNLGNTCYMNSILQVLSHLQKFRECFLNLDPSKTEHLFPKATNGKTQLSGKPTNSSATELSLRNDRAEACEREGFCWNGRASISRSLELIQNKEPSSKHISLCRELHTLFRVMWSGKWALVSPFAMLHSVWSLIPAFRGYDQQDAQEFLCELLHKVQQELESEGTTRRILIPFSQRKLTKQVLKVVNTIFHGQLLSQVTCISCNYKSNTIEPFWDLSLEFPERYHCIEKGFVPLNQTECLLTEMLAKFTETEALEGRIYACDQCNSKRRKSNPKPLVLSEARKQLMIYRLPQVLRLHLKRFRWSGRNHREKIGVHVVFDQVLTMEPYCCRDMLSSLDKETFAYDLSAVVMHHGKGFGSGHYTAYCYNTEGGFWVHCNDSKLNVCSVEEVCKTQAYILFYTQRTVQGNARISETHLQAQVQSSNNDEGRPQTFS
Description: biochemical. Details: SPR, steady-state binding to immobilised biotinylated UBD proteins.

For a further experiment, the target named is T3, USP51 (Homo sapiens, UniProt Q70EK9).
T3 construct: UBD, residues 176-305
T3 sequence (Q70EK9 1-711): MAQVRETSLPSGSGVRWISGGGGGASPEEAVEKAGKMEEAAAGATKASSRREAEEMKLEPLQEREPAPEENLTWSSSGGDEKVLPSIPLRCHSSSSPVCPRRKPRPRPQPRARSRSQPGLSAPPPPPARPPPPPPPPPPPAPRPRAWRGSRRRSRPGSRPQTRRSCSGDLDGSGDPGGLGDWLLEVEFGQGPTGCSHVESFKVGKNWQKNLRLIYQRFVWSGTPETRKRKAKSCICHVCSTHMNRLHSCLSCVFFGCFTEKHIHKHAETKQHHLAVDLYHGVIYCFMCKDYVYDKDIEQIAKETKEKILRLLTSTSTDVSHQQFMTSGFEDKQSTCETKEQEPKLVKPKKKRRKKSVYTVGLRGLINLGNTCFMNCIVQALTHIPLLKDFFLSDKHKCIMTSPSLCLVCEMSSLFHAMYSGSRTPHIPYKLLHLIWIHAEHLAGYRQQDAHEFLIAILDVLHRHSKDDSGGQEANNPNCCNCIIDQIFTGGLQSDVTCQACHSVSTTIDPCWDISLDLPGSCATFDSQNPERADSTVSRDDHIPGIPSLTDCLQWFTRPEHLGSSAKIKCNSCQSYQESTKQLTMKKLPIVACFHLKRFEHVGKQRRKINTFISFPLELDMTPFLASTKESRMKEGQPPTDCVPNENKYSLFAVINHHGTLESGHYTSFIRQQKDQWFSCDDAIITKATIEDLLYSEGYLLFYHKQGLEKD
Description: biochemical. Details: SPR, steady-state binding to immobilised biotinylated UBD proteins.

A further experiment addresses T4, BRAP (Homo sapiens, UniProt Q7Z569).
T4 construct: UBD, residues 304-390
T4 sequence (Q7Z569 1-592): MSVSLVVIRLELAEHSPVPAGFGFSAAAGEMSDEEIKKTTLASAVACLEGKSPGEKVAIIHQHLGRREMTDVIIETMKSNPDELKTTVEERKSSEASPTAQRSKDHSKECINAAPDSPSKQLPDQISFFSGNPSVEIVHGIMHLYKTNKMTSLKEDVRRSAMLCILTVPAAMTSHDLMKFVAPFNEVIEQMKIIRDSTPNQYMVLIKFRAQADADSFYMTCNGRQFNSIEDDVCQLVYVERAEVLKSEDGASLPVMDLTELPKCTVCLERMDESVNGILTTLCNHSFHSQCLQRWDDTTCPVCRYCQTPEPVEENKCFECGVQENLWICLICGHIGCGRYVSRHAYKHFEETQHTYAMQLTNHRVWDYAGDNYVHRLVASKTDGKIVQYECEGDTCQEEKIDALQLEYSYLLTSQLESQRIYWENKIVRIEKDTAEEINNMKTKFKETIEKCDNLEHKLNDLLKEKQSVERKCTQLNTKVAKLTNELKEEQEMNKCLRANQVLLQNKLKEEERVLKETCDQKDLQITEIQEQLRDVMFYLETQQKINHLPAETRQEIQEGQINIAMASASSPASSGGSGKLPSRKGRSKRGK
Description: biochemical. Details: SPR, steady-state binding to immobilised biotinylated UBD proteins.

[2] abbreviates: read-out: Probe KD (nM) SGC-UBD1031.
[3] abbreviates: read-out: Negative Control KD (nM) SGC-UBD1031N.

Each structure is given as a SMILES string. Like-named read-outs stand apart in the source and are kept apart here.

On to `C[C@H](NC(=O)Cn1c(CCC(=O)O)nc2c(Cl)cccc2c1=O)c1c(F)cccc1F` [compound 15, (S)-3-(8-chloro-3-(2-((1-(2,6-difluorophenyl)ethyl)amino)-2-oxoethyl)-4-oxo-3,4-dihydroquinazolin-2-yl)propanoic acid], for which the Kd (usually the constant that tells how readily two partners part at equilibrium) is 0.016 µM in experiment [1], 7500 ± 870 nM at USP49 (setting [2]), greater than 10000 nM on USP51 (setting [2]) and greater than 10000 nM at BRAP (setting [2]).

As for `C[C@@H](NC(=O)Cn1c(CCC(=O)O)nc2c(Cl)cccc2c1=O)c1c(F)cccc1F` [compound 16, (R)-3-(8-chloro-3-(2-((1-(2,6-difluorophenyl)ethyl)amino)-2-oxoethyl)-4-oxo-3,4-dihydroquinazolin-2-yl)propanoic acid], the equilibrium dissociation constant (Kd) in experiment [1] was greater than 5 µM; at USP49 (setting [3]), 6700 ± 2100 nM; at USP51 (setting [3]), greater than 10000 nM; on BRAP (setting [3]), greater than 10000 nM.
